# Where a chain is given by its changes, count along the chain named.
# Assays:
# [1] = target: T1, OTP86^DYW (Arabidopsis thaliana, UniProt Q9M1V3, L917A); assay: differential scanning fluorimetry (SYPRO orange); type: binding; conditions: 20 mM Tris pH 7.5, 150 mM NaCl; destabilizing
# T1 construct: gene PCMP-H83; isolated DYW domain, residues 826-960; N-terminal Strep-tag cut by TEV, GAM left; E. coli Rosetta2 (DE3); about 15 kDa, monomer
# T1 sequence (Q9M1V3 826-960 L917A): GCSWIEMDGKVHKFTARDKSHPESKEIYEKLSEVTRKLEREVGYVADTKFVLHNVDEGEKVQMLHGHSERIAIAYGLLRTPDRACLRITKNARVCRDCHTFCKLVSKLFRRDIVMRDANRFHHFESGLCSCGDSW
# [2] = target: T2, OTP86^DYW (Arabidopsis thaliana, UniProt Q9M1V3); assay: differential scanning fluorimetry (SYPRO orange); type: binding; conditions: 20 mM Tris pH 7.5, 150 mM NaCl, destabilizing
# T2 construct: gene PCMP-H83; isolated DYW domain, residues 826-960; N-terminal Strep-tag cut by TEV, GAM left; E. coli Rosetta2 (DE3); about 15 kDa, monomer
# T2 sequence (Q9M1V3 826-960): T1 sequence (Q9M1V3 826-960 L917A) with A92L
# [3] = target: T3, OTP86^DYW (Arabidopsis thaliana, UniProt Q9M1V3, H892C); assay: differential scanning fluorimetry (SYPRO orange); type: binding; conditions: 20 mM Tris pH 7.5, 150 mM NaCl; destabilizing
# T3 construct: gene PCMP-H83; isolated DYW domain, residues 826-960; N-terminal Strep-tag cut by TEV, GAM left; E. coli Rosetta2 (DE3); about 15 kDa, monomer
# T3 sequence (Q9M1V3 826-960 H892C): T1 sequence (Q9M1V3 826-960 L917A) with H67C, A92L
# [4] = target: T4, PPR56 (Physcomitrium patens, UniProt A0A2K1IWP1); assay: in vitro C-to-U RNA editing, RT-PCR sequencing; type: biochemical; conditions: nad4 RNA substrate, pH 7.5, 16 °C, activator
# T4 construct: gene LOC112295756; recombinant from pETG41K::PPR56 (His-MBP fusion), amylose-purified from E. coli; tag kept; PPR tract, E1, E2 and DYW domain
# [5] = target: T5, OTP86^DYW (Arabidopsis thaliana, UniProt Q9M1V3, K915A); assay: differential scanning fluorimetry (SYPRO orange); type: binding; conditions: 20 mM Tris pH 7.5, 150 mM NaCl; destabilizing
# T5 construct: gene PCMP-H83; isolated DYW domain, residues 826-960; N-terminal Strep-tag cut by TEV, GAM left; E. coli Rosetta2 (DE3); about 15 kDa, monomer
# T5 sequence (Q9M1V3 826-960 K915A): T1 sequence (Q9M1V3 826-960 L917A) with K90A, A92L
# T4 sequence (A0A2K1IWP1 entry or part of it): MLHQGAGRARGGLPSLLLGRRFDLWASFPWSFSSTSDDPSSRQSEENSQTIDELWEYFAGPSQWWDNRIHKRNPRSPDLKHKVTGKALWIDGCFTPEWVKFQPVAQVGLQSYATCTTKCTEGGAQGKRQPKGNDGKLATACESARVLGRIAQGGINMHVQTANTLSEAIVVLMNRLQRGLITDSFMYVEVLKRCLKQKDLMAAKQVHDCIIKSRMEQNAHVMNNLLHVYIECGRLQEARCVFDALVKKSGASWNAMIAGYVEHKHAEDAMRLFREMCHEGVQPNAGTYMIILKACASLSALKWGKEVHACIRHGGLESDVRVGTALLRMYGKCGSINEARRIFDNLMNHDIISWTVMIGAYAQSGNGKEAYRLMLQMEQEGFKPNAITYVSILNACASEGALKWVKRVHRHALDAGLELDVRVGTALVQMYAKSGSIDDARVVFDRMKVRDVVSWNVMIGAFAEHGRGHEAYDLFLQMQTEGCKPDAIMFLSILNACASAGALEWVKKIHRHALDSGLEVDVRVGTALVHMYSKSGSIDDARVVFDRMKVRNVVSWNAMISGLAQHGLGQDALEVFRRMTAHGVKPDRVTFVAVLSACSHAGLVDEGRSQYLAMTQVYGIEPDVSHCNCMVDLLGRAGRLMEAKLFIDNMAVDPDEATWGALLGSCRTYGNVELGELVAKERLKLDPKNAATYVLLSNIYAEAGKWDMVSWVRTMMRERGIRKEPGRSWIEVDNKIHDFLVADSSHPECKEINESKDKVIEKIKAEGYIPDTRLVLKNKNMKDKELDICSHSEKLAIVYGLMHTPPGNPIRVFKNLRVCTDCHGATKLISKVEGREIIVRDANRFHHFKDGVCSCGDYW
Structure (SMILES),Tm [1],Tm [3],"in vitro C-to-U RNA editing, RT-PCR sequencing [4]",further results
Nc1ncnc2c1ncn2[C@@H]1O[C@H](COP(=O)(O)OP(=O)(O)OP(=O)(O)O)[C@@H](O)[C@H]1O [ATP],a milder effect with ATP comparable to wild type was observed,we assessed the T m of H892C in the presence of the activators,–,"Tm ([2]; 2 mM ATP, reversible, activator): 65 °C; in vitro C-to-U RNA editing, RT-PCR sequencing ([4]; may be allosteric): ATP activates PPR56 and PPR56^PPRE1E2–OTP86^DYW in a concentration-dependent fashion"
Nc1nc2c(ncn2[C@@H]2O[C@H](COP(=O)(O)OP(=O)(O)OP(=O)(O)O)[C@@H](O)[C@H]2O)c(=O)[nH]1 [GTP],–,–,GTP also activate both PPR proteins in a concentration-dependent manner,"Tm ([2]; 2 mM GTP, reversible, activator): 65.3 °C"
Nc1ncnc2c1ncn2[C@@H]1O[C@H](COP(=O)(O)OP(=O)(O)CP(=O)(O)O)[C@@H](O)[C@H]1O [AMPPCP],–,–,–,Tm ([2]; non-hydrolysable ATP analogue): 68 °C
O=C1NC(O)CCN1[C@@H]1O[C@H](CO)[C@@H](O)[C@H]1O (stereo partly drawn) [tetrahydrouridine],The L917A mutation showed a prominent decrease in T m when THU was added,"The H892C mutant closely resembles the wild-type protein regarding activation, albeit less pronounced",THU increases deaminase activity markedly for both proteins in a concentration-dependent manner,"Tm ([2]; reversible, activator): 60 °C; Tm [5]: this effect is less severe with the K915A mutation"

# — PMC7611903, “DYW domain structures imply an unusual regulation principle in plant organellar RNA editing catalysis” (Nature catalysis, 2021)
